In patent US20160000750A1, “COMBINATION OF EGCG OR METHYLATED EGCG AND A PDE INHIBITOR” (KYUSHU UNIVERSITY, NATIONAL UNIVERSITY CORPORATION, priority 2010, published 2016):

How the values were obtained:
TLR 4 = experiment: TLR4 expression in RAW 264.7 by Western blotting; type: cell-based, mouse; conditions: vardenafil 5 μM, EGCG 10 μM added after 3 hours, 24 hours, untreated = 100
Procedure: (§1) A mouse macrophage cell line, RAW 264.7, was seeded in a 5-mL dish at 1×10^5 cells/mL and was pre-cultured in a DMEM medium supplemented with 1% FCS for 24 hours. Subsequently, vardenafil was added thereto at a concentration of 5 μM. After 3 hours, EGCG was added thereto at a concentration of 0 μM or 10 μM. After 24 hours, the cells were collected, and the expressions of Toll-like receptor (TLR) 2 and TLR 4 were measured by Western blotting.

[1] = tested on: Toll-like receptor (TLR) 2; experiment: TLR2 expression in RAW 264.7 by Western blotting; type: cell-based, mouse; conditions: vardenafil 5 μM, EGCG 10 μM added after 3 hours, 24 hours, untreated = 100
Procedure: as §1

CCCc1nc(C)c2c(=O)[nH]c(-c3cc(S(=O)(=O)N4CCN(CC)CC4)ccc3OCC)nn12 [vardenafil]
TLR4 expression level(%) (TLR 4): 112%
TLR2 expression level(%) [1]: 112%
